According to US12728121B2, “Compositions and methods for treating idiopathic pulmonary fibrosis” (Seyltx, Inc., priority 2019, dated 2026):

Experiments:
Assay type in all cases: in vivo, Mouse/C57BL/6
BLM-induced fibrosis [1] = experiment: Bleomycin (BLM)-induced lung fibrosis in mice: Gomori's Trichrome score of lung sections
Protocol: (§1) The mouse species or strain was Mouse/C57BL/6, the mice being 8-10 week old males. Nine groups of 10 mice each were obtained from Charles River Laboratories. Each group was randomized based on body weight. Bleomycin (BLM) was obtained from Euroasias.
(§2) The mice were anesthetized with isoflurane/O2 mixture. Bleomycin (BLM) was then administered to the mice intratracheally (PennCentury)—single bolus, at 2.5 U/kg body weight in 50 μl sterile saline.
(§3) Seven days after the bleomycin is administered, and fibroblasts have generally proliferated, six of the nine groups of IT bleomycin challenged mice were be dosed orally (p.o.) once a day with Bromantane, Ifenoprodil, Radiprodil, Bemithyl, Dexamethasone, or Repirinast at specified amounts per kg of body weight (mg/kg) daily for 14 consecutive days. The amounts are set out in Table 1 below. The vehicle used was 0.5% carboxymethyl cellulose (CMC). Prifenidone was also prepared in 0.5% CMC and administrated orally once a day to one of the nine IT bleomycin challenged mice groups beginning for 14 consecutive days. Vehicle and no-BLM control groups received 0.5% CMC orally for 14 consecutive days.
On day 21 of the study, 4 hours after the last dose, the mice were sacrificed and plasma was collected and frozen for cytokine analysis (testing for IL-6, IL-12, TGFβ, IL-13 proteins, or fibrosis markers). Bronchoalveolar lavage fluid (BALF) was collected and frozen for optional cytokine analyses and cell counts pending the initial data. The lungs were then excised, weighed and fixed in formalin. Gomori's Trichrome stain, a histological stain, was used to determine collagen content.
Trichrome Score: A trichrome score measures the level of scarring to the lungs caused by the disease. The greater the trichrome score, the greater the scarring.
Formalin fixed lung samples were submitted to affiliated histopathology laboratory for histopathological analysis subjected Gomori's Trichrome stain, a histological stain, which was used to determine collagen content.
Each lung was divided into ten sections. All ten sections were stained and evaluated. A board certified veterinarian pathologist assessed the presence of lung fibrosis and severity score—The expression of collagen (associated with fibrosis) is determined from the ratio of the stained area versus the total area of the lung section.

BLM-induced fibrosis [2] = experiment: Bleomycin (BLM)-induced lung fibrosis in mice: mortality rate over 21 days; settings: doses as Table 1
Protocol: as §1, §2, §3
Mortality Rate: the mortality rate in each group was also observed over 21 days.

[3] = Bleomycin (BLM)-induced lung fibrosis in mice: body weight over 21 days; settings: for Percent Change in Body Weight / Body Weight: doses as Table 1; for Body Weight: group mean
Protocol: as §1, §2, §3
Body Weight: The body weights were measured over 21 days using a laboratory balance.

[4] = doses as Table 1, order: Dexamethasone and Repirinast, followed by Ifenprodil and Radiprodil

With `Cc1ccc2c([nH]c(=O)c3c(=O)cc(C(=O)OCCC(C)C)oc32)c1C` [Repirinast, Isopentyl 7,8-dimethyl-4,5-dioxo-5,6-dihydro-4H-pyrano[3,2-c]quinoline-2-carboxylate] the “Trichrome score (average)” value (BLM-induced fibrosis [1]; day 21, BLM 2.5 U/kg intratracheal, p.o. once daily 14 days from day 7, mg/kg: Pirfenidone 300, Bromantane 20, Ifenoprodil 30, Radiprodil 30, Bemithyl 200, Dexamethasone 0.25, Repirinast 90, Normal 1.00, Vehicle 4.59) was 3.16, the “Trichrome score response versus BLM-vehicle group (in words)” value (BLM-induced fibrosis [1]; [4]) was “response was better” and the “percent reduction in lung fibrosis in comparison to the BLM-vehicle group (in words)” value (BLM-induced fibrosis [1]; [4]) was “higher”. The “% reduction in fibrosis” value (BLM-induced fibrosis [1]; from Trichrome scores relative to vehicle and normal groups, day 21, doses as Table 1, p.o. once daily 14 days) was 39.8%, the “improvement in lung fibrosis, loss of body weight, Trichrome score and mortality as compared to BLM-vehicle (conclusion, in words)” value (BLM-induced fibrosis [1]; oral administration, Dexamethasone 0.25, Repirinast 90, Ifenprodil 30, Radiprodil 30 mg/kg) was “showed improvement” and the “Fatality Number” value (BLM-induced fibrosis [2]; deaths/mice per group over 21 days, Vehicle 2/10) was 1/10. For the same molecule, the “percent survival (in words)” value (BLM-induced fibrosis [2]; order: Dexamethasone and Repirinast, followed by Ifenprodil and Radiprodil) was “higher”, the “Percent Fatality” value (BLM-induced fibrosis [2]; over 21 days, Vehicle 20%) was 10% and the “Percent Change in Body Weight” value ([3]; 7-Nov) was 0.0%. The “Body Weight” value ([3]; 7-Nov) was 23.5 g, the “Percent Change in Body Weight” value ([3]; 8-Nov) was 0.2% and the “Body Weight” value ([3]; 8-Nov) was 23.7 g. For the same molecule, the “Percent Change in Body Weight” value ([3]; 9-Nov) was −0.3%, the “Body Weight” value ([3]; 9-Nov) was 23.2 g and the “Percent Change in Body Weight” value ([3]; 12-Nov) was −2.0%. For the same molecule, the “Body Weight” value ([3]; 12-Nov) was 21.5 g, the “Percent Change in Body Weight” value ([3]; 14-Nov) was −1.8% and the “Body Weight” value ([3]; 14-Nov) was 21.8 g. The “Percent Change in Body Weight” value ([3]; 16-Nov) was −2.5%, the “Body Weight” value ([3]; 16-Nov) was 21.1 g and the “Percent Change in Body Weight” value ([3]; 20-Nov) was −2.2%. The “Body Weight” value ([3]; 20-Nov) was 21.4 g, the “Percent Change in Body Weight” value ([3]; 22-Nov) was −1.3% and the “Body Weight” value ([3]; 22-Nov) was 22.3 g. The “Percent Change in Body Weight” value ([3]; 26-Nov) was −1.6%, the “Body Weight” value ([3]; 26-Nov) was 21.9 g and the “Percent Change in Body Weight” value ([3]; 28-Nov) was −1.3%. The “Body Weight” value ([3]; 28-Nov) was 22.3 g and the “changes in body weight as compared to the BLM-vehicle group (in words)” value ([3]; doses as Table 1, p.o. once daily) was “No significant differences”.
